Measured values: patent US20210255168A1, “A METHOD OF PRECISION CANCER THERAPY” (KING FAISAL SPECIALIST HOSPITAL & RESEARCH CENTRE, priority 2018, published 2021)

Key:
Format in all cases: cell-based
[1] = system: MDA-MB-231 cells; assay: Proliferation assay (RTCA); details: MDA-MB-231, 300 nM, vs DMSO
Method: MDA-MB-231 cells were seeded in 6-well cell culture plates and incubated overnight. The cells were treated with the selected protein kinase inhibitors and incubated overnight. Then they were reseeded onto the invasion chamber in serum-free media at a density of 2×10^4 cells per well using 16-well CIM-Plate in Real-Time Cell Analysis (RTCA) Dual Plate (DP) Analyzer (ACEA Bioscinece, California, USA) that was loaded inside the incubator. The lower chambers to which cells will migrate were prepared to contain chemoattractant consisted of 10% FBS. For invasion assays, Matrigel (BioCoat, BD Biosciences, MA) which resembles the complex extracellular environment found in many tissues was prepared and used to coat the upper chamber of CIM plates. Invasion and migration were monitored continuously over 72-hour period using RTCA Software (ACEA Bioscinece, California, USA). The RTCA Instrument automatically monitors the cells every 15 minutes for 100 repetitions. For proliferation assays, the same principle was applied using a single chamber containing complete DMEM media (FIG. 10).
Based on the dose-response curve, 330 nM was selected to be used as a standard dose for the experiments. In the invasion assay, MDA-MB-231 cells were treated with volasertib or DMSO for 24 hr, then invasion was monitored for 30 hr.

[2] = system: TTP mRNA in MDA-MB-231 cells; assay: qPCR for TTP mRNA expression; details: MDA-MB-231, 24 h, vs DMSO
Method: (§1) Cells were cultured in six-well plates and either treated with DMSO or drugs for 24 h. Total RNA was then extracted using Trizol reagent (TRI Reagent, Sigma-Aldrich, St Louis, Mo.). The cells were lysed directly on the culture dish by adding 1 ml of the TRI Reagent per 10 cm^2 surface area. Reverse transcription for preparation of cDNA was performed using 3 μg of total RNA, 150 ng random primers, 0.1 M dithiothreitol (DTT), 10 mM deoxynucleotide triphosphate (dNTP) and 200 U of SuperScript II (Invitrogen, Foster City, Calif.). The quantitative RT-QPCR was performed in multiplex in the Chroma 4 DNA Engine cycler (BioRad, Hercules, Calif., USA) using FAM-labelled TaqMan probes (Applied Biosystems, Foster City, Calif., USA) for TTP (ZFP36), HuR (ELAVL1), uPA (PLAU)-CXCR4, MMP-1, MMP-13, IL-8, PLK-1 while a VIC-labelled glyceraldehyde-3-phosphate dehydrogenase (GAPDH) probe was used as the endogenous control. Samples were amplified in triplicate and quantification of relative expression was performed using the estimation of quantitation cycle (Cq) method.
(§2) To study the influence of PLK-1 inhibition on ARE-containing mRNA stability, the effect of volasertib treatment on the half-life of uPA was analyzed. Half-life of uPA mRNA was reduced from >6 hr to 0.5 hr in response to volasertib treatment compared to the DMSO control (FIG. 12C). […]

[3] = system: MDA-MB-231 cells; assay: RNAseq analysis of global gene expression
Description: mRNA was extracted from DMSO- or volasertib-treated […]. cDNA libraries were made for sequencing a measure of transcript copy numbers that correspond to the abundance of each gene (FIG. 6A). […] Among those is 170 ARE-coding genes as derived by crossing with AU-rich element database. (FIG. 6B).

[4] = system: HuR mRNA in MDA-MB-231 cells; assay: qPCR for HuR mRNA expression; details: MDA-MB-231, 24 h, vs DMSO
Method: as §1, §2

[5] = system: uPA mRNA in MDA-MB-231 cells; assay: mRNA half-life (Actinomycin D, one-phase exponential decay); details: MDA-MB-231, Actinomycin D 5 μg/ml; DMSO control >6 hr
Method: For half-life experiments, 5 μg/ml of Actinomycin D (ActD; Sigma-Aldrich, St Louis, Mo.) was added to the cells for 1, 2, 4 and 6 h prior to extraction of total RNA using Trizol. The reverse transcription reaction and quantitative PCR were performed as described above. The half-life of mRNAs was estimated using the one-phase exponential decay method using GraphPad Prism software (GraphPad Software, San Diego, Calif.).
To study the influence of PLK-1 inhibition on ARE-containing mRNA stability, the effect of volasertib treatment on the half-life of uPA was analyzed. Half-life of uPA mRNA was reduced from >6 hr to 0.5 hr in response to volasertib treatment compared to the DMSO control (FIG. 12C). […] Compatible with the findings of the inventors, the higher the level of PLK-1, the lower the TTP expression.

[6] = system: MDA-MB-231, MCF7, and SKBR3 cell lines; assay: mRNA expression in breast cancer cell lines
Method: as §1
PLK1 kinase, as an example of kinases involved in cancer, is over-expressed in breast cancer cell lines, including MCF7, MDA-MB-231 and SKBR3 when compared to the normal-like MCF10A (FIG. 5A). Many kinases are either over-expressed or constitutively active or hyperactive in cancer states when compared to normal cells. As example of inhibitors that are found in the precision cancer therapy screen, Volasertib and Regorafenib (VEGFR kinase inhibitor) led to reduction in the level of ARE-containing mRNA, uPA in most of the cancer cell lines. (FIG. 5B).
The present inventors further disclose that the effect of PLK-1 inhibition is consistent among different types of breast cancer including triple-negative, […], and ER-PR negative breast cancers, as shown through the actions induced by PLK-1 inhibitor volasertib on MDA-MB-231, MCF7, and SKBR3 cell lines, namely increasing the expression of TTP, decreasing the HuR level, and downregulating the TTP target uPA. […] Accordingly, the present inventor discloses that any protein kinase inhibitor which post-transcriptionally regulates expression of cancer-related genes is suitable for precision cancer therapy. Further disclosed is a method of treatment of cancer comprising administering said protein kinase inhibitor, to a patient in need thereof.

[7] = system: PD-1L; assay: PD-1L expression; details: FIG. 18
Method: FIG. 18: Volasertib reduces PD-1L expression.
These include IL-8, solute carrier family 2 member 1 (SLC2A1), uPA, uPAR, CXCR4, MMP13, PDL1, and HuR. The MDA-MB-231 cells were treated with 330 nM volasertib or DMSO for 24 hr, then quantitative RT-qPCR was performed in using FAM-labelled TaqMan probe of the above genes and normalized to GADPH (FIG. 11).

[8] = MDA-MB-231, MCF7, and SKBR3 cell lines

In the case of CC[C@@H]1C(=O)N(C)c2cnc(Nc3ccc(C(=O)N[C@H]4CC[C@H](N5CCN(CC6CC6)CC5)CC4)cc3OC)nc2N1C(C)C [volasertib], the proliferation [1] is reported as “significantly reduced”, the “enhancement of TTP mRNA expression” value [2] is reported as 40% and the “number of ARE-coding genes among the down-regulated genes” value ([3]; crossed with AU-rich element database) is reported as 170 genes. For the same compound, the “number of genes down-regulated by at least 1.7-fold” value ([3]; p<0.001, vs DMSO) was 540 genes, the “reduction of HuR mRNA expression” value [4] was 60% and the “half-life of uPA mRNA” value [5] was 30 min. The “level of ARE-containing mRNA uPA in cancer cell lines” value ([6]; MCF7, MDA-MB-231 and SKBR3, most of the cancer cell lines) was “reduction”, the HuR level [6, 8] was “decreasing” and the “TTP target uPA” value [6, 8] was “downregulating”. The “expression of TTP” value [6, 8] was “increasing” and the PD-1L expression [7] was “reduces”.
